3 compounds from patent US4803066A, “Antibacterial and/or antifungal compositions for topical application” (Smith & Nephew Associated Companies p.l.c., priority 1986, dated 1989) can be followed below.

In one assay the test system is Enterococcus 0022. The assay can be described thus: microbe, parasite or virus in culture. The conditions noted are these: Enterococcus, 0022, read-out: MIC: Individual Agents.
The subject of a further assay is C. albicans V ATCC 10231. The assay can be described thus: MIC of silver nitrate and clotrimazole individually and in combination (broth, microtitre plate). It counts as cell-based, Candida albicans. The note with it: for MIC: Combination of Agents, Clotrimazole: in combination with silver nitrate; for MIC: Combination of Agents, Clotrimazole / MIC: Individual Agents / MIC: Combination of Agents, Silver nitrate: C. albicans V ATCC 10231; for MIC: Individual Agents: alone; for MIC: Combination of Agents, Silver nitrate: in combination with clotrimazole.

Another assay has as its system C. albicans V. The assay can be described thus: MIC of agents individually and in combination (broth, microtitre plate). The note with it: Candida albicans, read-out: MIC: Individual Agents.
The next assay has as its system C. albicans 159. The assay can be described thus: microbe, parasite or virus in culture. The note with it: Candida albicans, 159, read-out: MIC: Individual Agents.
The next assay has as its system C. albicans I. The assay can be described thus: microbe, parasite or virus in culture. The conditions noted are these: Candida albicans, read-out: MIC: Individual Agents.
Another assay deals with Staph. aureus 1300. The assay can be described thus: microbe, parasite or virus in culture. The conditions noted are these: Staphylococcus aureus, 1300, read-out: MIC: Individual Agents.
A further assay concerns Staph. aureus NCTC 10788. The assay can be described thus: microbe, parasite or virus in culture. The note with it: Staphylococcus aureus, NCTC10788, read-out: MIC: Individual Agents.
Another assay deals with Staph. aureus. The assay can be described thus: microbe, parasite or virus in culture. The conditions noted are these: Staphylococcus aureus, read-out: MIC: Individual Agents.
The test system of the next assay is E. Coli 0029. The assay can be described thus: microbe, parasite or virus in culture. The conditions noted are these: Escherichia coli, read-out: MIC: Individual Agents.

≈ marks a conversion by molar mass, not a printed value.

Method for C. albicans 159: (§1) The test method employed was as follows suspensions of each agent or combination of agents were prepared at a range of dilutions in 60% propylene glycol in water. Isosensitest (trade mark) broth was inoculated with a test organism at a concentration of 10^5 organisms per ml and a sample was dispensed into wells of a microliter plate. The range of concentration of test substance or combination was added to the wells so that there was a further 10-fold dilution of the test substance or combination. The plates were incubated for either 24 or 48 hours at 37° C., and the MIC read as the lowest concentration giving no visible growth. For each organism tested all conditions of inoculum preparation, inoculation and incubation were standardised throughout.
Method for C. albicans I: as §1
Method for C. albicans V ATCC 10231: as §1
Method for E. Coli 0029: as §1
Method for Enterococcus 0022: as §1
Method for Staph. aureus 1300: as §1
Method for Staph. aureus NCTC 10788: as §1

For `Clc1ccccc1C(c1ccccc1)(c1ccccc1)n1ccnc1` [Clotrimazole, 1-{(2-chlorophenyl)diphenylmethyl}-1H-imidazole], the MIC in the assay with Enterococcus 0022 was determined as 100 µg/mL (≈ 290 µM); in the assay with C. albicans V ATCC 10231 (Candida albicans, ATCC10231, read-out: MIC: Individual Agents), 12.5 µg/mL; in the assay on C. albicans V it was 0.5 µg/mL; in the assay on C. albicans 159 it was 25 µg/mL (≈ 72.5 µM); in the assay on C. albicans I, 5 µg/mL (≈ 14.5 µM); in the assay on Staph. aureus 1300, 100 µg/mL (≈ 290 µM). Moreover, the MIC in the assay with Staph. aureus NCTC 10788 came to 100 µg/mL (≈ 290 µM). In addition, the “MIC: Combination of Agents, Clotrimazole” value in the assay with C. albicans V ATCC 10231 (Table 3) and in the assay on C. albicans V ATCC 10231 (Table 4) was 3.125 µg/mL in each case. The “MIC: Individual Agents” value with C. albicans V ATCC 10231 (Table 4) came to 12.5 µg/mL.
With `Clc1ccc(COC(Cn2ccnc2)c2ccc(Cl)cc2Cl)c(Cl)c1` (centres unmarked) [Miconazole nitrate, 1-{2-(2,4-dichlorophenyl)-2-[(2,4-dichlorophenyl)methoxy]ethyl}-1H-imidazole], the MIC in the assay on Staph. aureus is above 500 µg/mL; in the assay on E. Coli 0029, above 500 µg/mL; in the assay with C. albicans V, 62.5 µg/mL.
For `O=[N+]([O-])[O-].[Ag+]` [Silver nitrate, silver nitrate], in the assay with C. albicans V ATCC 10231 (Table 3), the “MIC: Individual Agents” value is 25 µg/mL and the “MIC: Combination of Agents, Silver nitrate” value came out at 6.25 µg/mL. In the assay with C. albicans V ATCC 10231 (Table 4), the “MIC: Individual Agents” value amounted to 25 µg/mL and the “MIC: Combination of Agents, Silver nitrate” value is 6.25 µg/mL.
